pIC50: −log10 of the molar value. Read-outs that look alike come from different tables or passages of the source.
Assays:
Assay type in all cases: biochemical
[1] = target: ERK1 (Homo sapiens, UniProt P27361); experiment: Kinase screen: ERK1 assay
Procedure: (§1) Generally, the same procedure was used for all assays. Since the total assay volume was 25.5 microliters, 0.5 microliters of inhibitors at 51× assay concentration were added to the plates before any other addition.
(§2) The basic procedure was to add 0.5 microliters inhibitor/control in DMSO to plate. Fifteen microliters of enzyme/substrate/buffer mix were added and incubated for 5 min. Ten microliters MgATP at the relevant concentration were added and incubated for 30 min. The assay was stopped by adding 5 microliters of 3% orthophosphoric acid. The assay was transferred to a p81 filter plate and read in a scintillation counter of 30 sec/well. Note that this assay procedure was not followed for MKK1, which instead involved a two-step assay, and PKC alpha, which required the addition of lipid vesicles.
ERK1 assay: 5-20 mU of ERK1 (diluted in 50 mM Tris (pH 7.5), 0.1 mM EGTA, 1 mg/ml BSA, 0.1%, b-Mercaptoethanol) was assayed against MBP in a final volume of 25.5 μl containing 50 mM Tris (pH 7.5), 0.1 mM EGTA, 0.1%, b-Mercaptoethanol, 0.33 mg/ml MBP, 10 mM magnesium acetate and 0.005 mM [33P-g-ATP] (500-1000 cpm/pmole) and incubated for 30 mins at room temperature. Assays were stopped by addition of 5 μl of 0.5M (3%) orthophosphoric acid. Assays were harvested onto P81 Unifilter plates using a wash buffer of 50 mM orthophosphoric acid.

[2] = target: Src (Homo sapiens, UniProt P12931); experiment: Kinase screen: Src assay
Procedure: as §1, §2
(50-1000 cpm/pmole) and incubated for 30 min at room temperature. Assays were stopped by addition of 5 μl of 0.5 M (3%) orthophosphoric acid and then harvested onto P81 Unifilter plates with a wash buffer of 50 mM orthophosphoric acid.

[3] = target: T1, TBK1 (Homo sapiens, UniProt Q9UHD2); experiment: Kinase screen: TBK1 / TBK1 (DU12569) assay; details: 10 micromolar compound; for remaining activity at 10 µM: read-out: mean activity remaining (as a percentage of the original activity), TBK1
T1 construct: DU12569
T1 sequence (Q9UHD2 1-729): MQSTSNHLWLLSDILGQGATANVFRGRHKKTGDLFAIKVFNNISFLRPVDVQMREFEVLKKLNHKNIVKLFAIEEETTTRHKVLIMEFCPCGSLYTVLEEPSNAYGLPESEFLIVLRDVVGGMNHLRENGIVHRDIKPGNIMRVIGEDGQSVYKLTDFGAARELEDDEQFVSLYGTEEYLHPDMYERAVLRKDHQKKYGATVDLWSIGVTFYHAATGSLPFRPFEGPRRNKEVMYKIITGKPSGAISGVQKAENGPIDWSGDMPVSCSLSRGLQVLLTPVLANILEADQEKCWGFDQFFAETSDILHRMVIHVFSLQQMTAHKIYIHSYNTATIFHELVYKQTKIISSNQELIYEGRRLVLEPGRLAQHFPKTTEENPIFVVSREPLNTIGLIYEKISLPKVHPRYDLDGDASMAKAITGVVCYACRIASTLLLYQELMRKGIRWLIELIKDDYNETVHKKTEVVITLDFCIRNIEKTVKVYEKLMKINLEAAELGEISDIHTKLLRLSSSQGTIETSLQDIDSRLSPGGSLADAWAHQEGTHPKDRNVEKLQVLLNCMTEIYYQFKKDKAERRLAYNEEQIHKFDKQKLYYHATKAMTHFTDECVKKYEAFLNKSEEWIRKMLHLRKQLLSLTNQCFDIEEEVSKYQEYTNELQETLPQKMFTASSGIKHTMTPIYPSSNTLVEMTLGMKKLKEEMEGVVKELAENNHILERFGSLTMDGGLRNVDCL
Procedure: as §1, §2
(§3) TBK1 assay: TBK1 (5-20 mU diluted in 50 mM Tris pH 7.5, 0.1 mM EGTA, 1 mg/ml BSA) was assayed against a substrate peptide ([…]) (SEQ ID NO: 31) in a final volume of 25.5 μl containing 50 mM Tris pH 7.5, 300 μM substrate peptide, 10 mM magnesium acetate and 0.05 mM [33P-g-ATP] (50-1000 cpm/pmole) and incubated for 30 min at room temperature. Assays were stopped by addition of 5 μl of 0.5 M (3%) orthophosphoric acid and then harvested onto P81 Unifilter plates with a wash buffer of 50 mM orthophosphoric acid.
as §3, with “TBK1 (DU12569)” for “TBK1”, “37)” for “31)”

[4] = target: CDK4 (Homo sapiens, UniProt P11802); experiment: CDK4 in vitro kinase inhibition (protocol similar to Example 14); details: for remaining activity at 0.1 µM: 100 nM, mean of three (standard deviation), read-out: CDK4 % remaining kinase activity after incubation with 100 nM of compound; for pIC50: Table 7, mean of three experiments
[5] = 10 micromolar compound, read-out: mean activity remaining (as a percentage of the original activity), ERK1
[6] = 10 micromolar compound, read-out: mean activity remaining (as a percentage of the original activity), Src

Chain of CDK4 (P11802 whole entry): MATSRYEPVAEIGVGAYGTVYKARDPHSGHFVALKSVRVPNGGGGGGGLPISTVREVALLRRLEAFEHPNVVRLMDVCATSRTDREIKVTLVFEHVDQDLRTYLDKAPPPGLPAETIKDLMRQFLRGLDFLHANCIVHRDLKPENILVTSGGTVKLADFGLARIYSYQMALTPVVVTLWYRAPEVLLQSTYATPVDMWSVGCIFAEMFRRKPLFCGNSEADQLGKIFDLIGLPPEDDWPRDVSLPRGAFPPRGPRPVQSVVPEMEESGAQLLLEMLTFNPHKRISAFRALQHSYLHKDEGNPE
Chain of CDK4 (P24385 whole entry partner): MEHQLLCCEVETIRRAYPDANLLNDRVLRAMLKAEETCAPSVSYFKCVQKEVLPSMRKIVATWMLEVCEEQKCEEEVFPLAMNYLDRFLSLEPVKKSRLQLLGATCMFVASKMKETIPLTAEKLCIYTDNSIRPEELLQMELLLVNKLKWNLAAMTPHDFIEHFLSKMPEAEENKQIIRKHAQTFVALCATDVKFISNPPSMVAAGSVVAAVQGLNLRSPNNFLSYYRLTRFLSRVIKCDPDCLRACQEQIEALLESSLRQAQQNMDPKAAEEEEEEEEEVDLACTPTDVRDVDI
Chain of ERK1 (P27361 whole entry, species assumed): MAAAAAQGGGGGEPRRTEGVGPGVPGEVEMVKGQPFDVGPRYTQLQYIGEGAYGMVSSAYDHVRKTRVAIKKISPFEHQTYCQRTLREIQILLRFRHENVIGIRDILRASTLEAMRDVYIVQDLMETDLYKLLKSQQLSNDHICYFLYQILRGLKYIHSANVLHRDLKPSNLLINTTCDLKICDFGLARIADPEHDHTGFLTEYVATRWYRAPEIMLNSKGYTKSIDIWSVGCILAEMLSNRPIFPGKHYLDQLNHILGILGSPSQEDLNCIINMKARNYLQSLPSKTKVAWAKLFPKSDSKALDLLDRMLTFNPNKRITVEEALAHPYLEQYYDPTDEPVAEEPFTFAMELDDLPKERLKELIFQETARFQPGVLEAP
Chain of Src (P12931 whole entry, species assumed): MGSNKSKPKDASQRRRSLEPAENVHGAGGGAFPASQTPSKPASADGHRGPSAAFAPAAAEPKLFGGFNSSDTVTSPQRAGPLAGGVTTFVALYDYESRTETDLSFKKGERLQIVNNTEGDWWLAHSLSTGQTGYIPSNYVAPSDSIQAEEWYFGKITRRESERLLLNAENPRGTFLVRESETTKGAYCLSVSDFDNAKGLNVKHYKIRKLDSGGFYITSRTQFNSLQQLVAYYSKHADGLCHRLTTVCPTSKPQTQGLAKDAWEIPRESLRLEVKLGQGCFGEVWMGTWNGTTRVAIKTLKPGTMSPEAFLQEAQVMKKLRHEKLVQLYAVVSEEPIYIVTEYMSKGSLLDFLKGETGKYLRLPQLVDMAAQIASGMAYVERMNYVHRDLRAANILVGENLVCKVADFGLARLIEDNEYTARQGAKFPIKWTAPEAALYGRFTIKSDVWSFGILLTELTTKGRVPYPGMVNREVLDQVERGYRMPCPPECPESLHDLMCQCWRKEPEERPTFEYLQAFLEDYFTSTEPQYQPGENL

Row | SMILES | remaining activity at 10 µM ([1]; ERK1, 10 μM, read-out: Mean Remaining Enzyme Activity (%)) [%] | remaining activity at 10 µM ([2]; Src, 10 μM, read-out: Mean Remaining Enzyme Activity (%)) [%] | remaining activity at 10 µM [3] [%] | remaining activity at 10 µM [1, 5] [%] | remaining activity at 10 µM [2, 6] [%] | remaining activity at 0.1 µM [4] [%] | pIC50 [4] | mean activity remaining (as a percentage of the original activity), TBK1 [3] [%] | mean activity remaining (as a percentage of the original activity), ERK1 ([1]; 10 micromolar compound) [%] | mean activity remaining (as a percentage of the original activity), Src ([2]; 10 micromolar compound) [%]
1 | CC(C)c1cnn2c(NCc3ccccc3)cc(NCCCCCCCN)nc12 [BS-181] | 108 | 88 | – | – | – | – | – | – | – | –
2 | C=C[C@H](CO)Nc1cc(NCc2ccccc2)n2ncc(C(C)C)c2n1 [ICEC0065] | – | – | 83 | 84 | 112 | 77 | < 6.00 | – | – | –
3 | CC[C@H](CO)Nc1cc(NCc2ccccc2)n2ncc(C(C)C)c2n1 [ICEC0067] | – | – | 85 | 69 | 90 | 88 | < 6.00 | – | – | –
4 | CC(C)c1cnn2c(NCc3ccccc3)cc(N[C@@H](CO)[C@H](O)CO)nc12 [ICEC0318, (3S)-3-(7-(Benzylamino)-3-isopropylpyrazolo[1,5-a]pyrimidin-5-ylamino)butane-1,2,4-triol] | – | – | 87 | 42 | 95 | 88 | < 6.00 | – | – | –
5 | CC(C)c1cnn2c(NCc3ccccc3F)cc(NCCCCCN)nc12 [ICEC-0232] | – | – | – | – | – | – | – | 91 | 90 | 96

From patent publication US8067424B2, “Selective inhibitors for cyclin-dependent kinases” (Emory University, priority 2007, dated 2011)
